Laboratory results: US9988371B2, “Benzimidazole analogues and related methods” (The Arizona Board of Regents, on Behalf of the University …, priority 2014, dated 2018)

Columns and labels:
[1] = molecular target: CYP3A4 (Homo sapiens, UniProt P08684); assay: CYP inhibition; type: in vitro ADME; settings: read-out: CYP 3A4 IC50
[2] = test system: LC-2/ad cells (NSCLC expressing CCDC6-RET); assay: Growth curve proliferation assay, LC-2/ad cells; type: cell-based; settings: Homo sapiens, last day of growth curves
Method: FIG. 5: Effects exerted by indicated concentrations of Pz-1 or vehicle (NT: not treated) on proliferation of TT (human MTC cell line expressing RET/C634W), Lc-2/ad (human NSCLC expressing CCDC6-RET) and Nthy-ori-3-1 (thyroid non-transformed) cell lines. Data are the mean±SD (Standard Deviation) of one experiment performed in triplicate. Bottom, right) Growth inhibition IC50 of Pz-1 for the different cell lines: 95% CI (confidence intervals) are indicated in brackets. Cells were seeded in triplicate in 60-mm dishes and kept in 5% (Nthy-ori-3-1) or 10% (TT and Lc-2/ad) fetal calf serum. The day after plating, different concentrations of Pz-1 or vehicle were added to the medium and changed every 2-3 days. Cells were counted every 2-3 days and cell numbers were reported±SD (Standard Deviation). IC50 doses (with Confidence Intervals) were calculated through a curve fitting analysis from the last day of growth curves using the PRIZM software program (Graphpad Software Inc).
Nthy-ory-3-1 and TTcells were seeded in 60-mm dishes. […] Cells were counted every 2-3 days. […] Parental and RET/PTC-expressing Ba/F3 were kept in 10% fetal calf serum in 6-multi wells and counted every day for 4 consecutive days, changing media every 2 days. […] IC50 doses were calculated through a curve fitting analysis from the last day of growth curves using the PRISM software program (Graphpad Software Inc). […]

[3] = molecular target: T1, RET/C634R-V804M (Homo sapiens, UniProt P07949, C634R/V804M); assay: RET auto-phosphorylation immunoblot in transfected HEK293 cells; type: cell-based; settings: 1 nM, 2 hrs, cells expressing RET/C634R-V804M
T1 construct: expressed in transfected cells; host or cells: HEK293
T1 sequence (P07949 29-1072 isoform P07949-2 C634R/V804M limits assumed): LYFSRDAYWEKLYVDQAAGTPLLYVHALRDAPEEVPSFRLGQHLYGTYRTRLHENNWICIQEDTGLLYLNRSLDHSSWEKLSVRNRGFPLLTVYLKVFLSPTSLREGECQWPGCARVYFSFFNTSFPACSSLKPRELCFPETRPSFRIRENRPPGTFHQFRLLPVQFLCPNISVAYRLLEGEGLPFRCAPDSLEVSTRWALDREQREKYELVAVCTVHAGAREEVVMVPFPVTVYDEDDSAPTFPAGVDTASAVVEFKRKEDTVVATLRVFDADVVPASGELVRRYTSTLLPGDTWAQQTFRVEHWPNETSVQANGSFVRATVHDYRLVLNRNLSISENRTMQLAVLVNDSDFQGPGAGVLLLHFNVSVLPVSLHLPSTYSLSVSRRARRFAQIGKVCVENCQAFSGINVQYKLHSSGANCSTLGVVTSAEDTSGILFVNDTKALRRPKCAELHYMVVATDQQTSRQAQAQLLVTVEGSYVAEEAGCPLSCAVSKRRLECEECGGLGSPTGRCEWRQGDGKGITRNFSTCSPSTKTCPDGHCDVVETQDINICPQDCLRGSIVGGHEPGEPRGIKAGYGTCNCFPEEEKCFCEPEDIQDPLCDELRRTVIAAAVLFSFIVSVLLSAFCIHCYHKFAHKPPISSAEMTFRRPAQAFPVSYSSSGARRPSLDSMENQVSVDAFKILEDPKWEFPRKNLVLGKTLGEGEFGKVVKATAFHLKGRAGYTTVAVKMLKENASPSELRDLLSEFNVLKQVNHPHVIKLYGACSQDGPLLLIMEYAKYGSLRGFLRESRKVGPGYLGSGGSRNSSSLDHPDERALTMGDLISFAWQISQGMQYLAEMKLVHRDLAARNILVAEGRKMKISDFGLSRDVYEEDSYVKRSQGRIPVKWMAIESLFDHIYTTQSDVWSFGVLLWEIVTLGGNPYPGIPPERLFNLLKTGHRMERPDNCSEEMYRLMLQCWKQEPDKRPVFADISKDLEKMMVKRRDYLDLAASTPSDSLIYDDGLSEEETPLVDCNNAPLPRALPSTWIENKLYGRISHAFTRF
Description: FIG. 2: Photographs of blots showing inhibition of phosphorylation of gate-keeper RET point mutant and rearranged RET oncoproteins by Pz-1 or vehicle (NT: not treated). HEK293 cells were transiently transfected with vectors expressing RET/C634R-V804M mutant (V804 is the gate-keeper RET residue), or RET/PTC1 (CCDC6-RET, found in papillary thyroid carcinoma and lung adenocarcinoma), RET/PTC3 (NCOA4-RET, found in papillary thyroid carcinoma and lung adenocarcinoma), or KIF5B-RET (found in lung adenocarcinoma). After 36 hr from transfection, cells were serum-starved for 12 hr and then treated for 2 hr with indicated concentrations of Pz-1. 50 μg of total cell lysates were subjected to immunoblotting with anti-phospho-Y1062 (αp1062) and anti-phospho-Y905 (αp905) RET antibodies. The blots were normalized using anti-RET (αRET) antibody.
The inhibition of RET auto-phosphorylation by Pz-1 was measured in several different cell lines including NIH3T3 fibroblasts expressing RET/C634Y or RET/M918T, TT expressing RET/C634W (MTC), Nthy-ory-3-1 (thyroid, non-transformed with RET; negative control), HEK293/RET/PTC1 (CCDC6-RET that can be found in PTC & lung cancer), HEK293/RET-KIF5B (that can be found in lung cancer), HEK293/RET/PTC3 (NCOA4-RET, that can be found in PTC & lung cancer), and HEK293 transfected with RET/C634R-V804M (FIGS. 1-3). […]

CYP3A4, sequence (P08684 whole entry): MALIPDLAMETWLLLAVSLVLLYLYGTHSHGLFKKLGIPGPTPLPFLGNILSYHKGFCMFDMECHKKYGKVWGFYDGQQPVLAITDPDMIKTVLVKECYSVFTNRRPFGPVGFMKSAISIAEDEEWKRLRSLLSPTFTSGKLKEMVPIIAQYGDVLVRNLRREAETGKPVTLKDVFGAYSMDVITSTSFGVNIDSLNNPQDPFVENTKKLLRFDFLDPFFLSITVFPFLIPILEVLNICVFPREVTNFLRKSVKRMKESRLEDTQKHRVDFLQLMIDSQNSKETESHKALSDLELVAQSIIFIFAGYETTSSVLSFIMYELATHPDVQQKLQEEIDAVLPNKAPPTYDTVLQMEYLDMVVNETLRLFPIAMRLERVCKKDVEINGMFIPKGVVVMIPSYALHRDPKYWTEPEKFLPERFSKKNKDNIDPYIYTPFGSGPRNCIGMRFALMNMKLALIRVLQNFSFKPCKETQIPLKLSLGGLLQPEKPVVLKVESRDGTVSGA

Cn1cc(-c2ccc3c(c2)ncn3-c2ccc(CC(=O)Nc3cc(C(C)(C)C)on3)cc2)cn1 [Pz-1, N-(5-(tert-butyl)isoxazol-3-yl)-2-(4-(5-(1-methyl-1H-pyrazol-4-yl)-1H-benzo[d]imidazol-1-yl)phenyl)acetamide]
IC50 [1]: 7.4 µM | IC50 [2]: 0.000907 µM | inhibition of pRET [3]: strongly inhibited
